Data as given in patent publication US9657022B2, “7-OXO-1,6-diazabicyclo[3.2.1]octane derivatives and their use as antibacterial agents” (WOCKHARDT LIMITED, priority 2014, dated 2017).
Values after ≈ are worked out from the molar mass of the structure shown. Values joined by “and” are separate entries in the source; they are usually repeats but may differ in a detail not shown here. Identical values can stand only once.

Assays:
P. aeruginosa PAO1 = assay: Antibacterial activity (MIC), agar dilution per CLSI; assay type: cell-based; conditions: Pseudomonas aeruginosa
Description: (§1) The biological activity of representative compounds according to the invention against various bacterial strains was investigated. In a typical study, overnight grown bacterial cultures were diluted appropriately and inoculated on the agar media containing doubling dilutions of the test compounds. Observations for growth or no growth was performed after 16-20 hours of incubation at 35±2° C. in the ambient air. The overall procedure was performed as per Clinical and Laboratory Standards Institute (CLSI) recommendations, (Clinical and Laboratory Standards Institute (CLSI), Performance Standards for Antimicrobial Susceptibility Testing, 20th Informational Supplement, M07-A9, Volume 32, No. 2, 2012). Molten Mueller Hinton Agar (BD, USA) containing serial dilutions of each antibacterial agent were poured on to the plates and allowed to solidify. Appropriate suspensions from the freshly grown cultures were prepared in normal saline so that about 10^4 CFU/spot of the organism was delivered on to the drug containing agar plates using automated multipoint inoculator (Mast, UK). The plates were incubated in Biochemical oxygen demand (BOD) incubator at 37° C. for 18 hours and then examined for growth.
(§2) Table 3 details the antibacterial activity of representative compound of Formula (I), (2S,5R)-sulfuric acid mono-{2-[N′-(2-(S)-pyrrolidin-2-yl-acetyl)-hydrazinocarbonyl]-7-oxo-1,6-diaza-bicyclo[3.2.1]oct-6-yl}ester (Compound of Example 1), against various Multi Drug Resistant (MDR) Gram-negative bacterial strains. The activities are expressed as Minimum Inhibitory Concentrations (MICs) (mcg/ml).

E. coli NCTC 13351 = assay: as above; assay type: cell-based; conditions: Escherichia coli, NCTC13351
Description: as §1, §2

E. coli NCTC 13352 = assay: as above; assay type: cell-based; conditions: Escherichia coli, NCTC13352
Description: as §1, §2

E. cloacae M 20 = assay: as above; assay type: cell-based; conditions: Enterobacter cloacae, M20
Description: as §1, §2

K. pneumoniae H 525 = assay: as above; assay type: cell-based; conditions: Klebsiella pneumoniae, H525
Description: as §1, §2

P. aeruginosa R 20 = assay: as above; assay type: cell-based; conditions: Pseudomonas aeruginosa, R20
Description: as §1, §2

E. coli M 50 = assay: as above; assay type: cell-based; conditions: Escherichia coli, M50
Description: as §1, §2

E. coli 7 MP = assay: as above; assay type: cell-based; conditions: Escherichia coli
Description: as §1, §2

K. pneumoniae S 21 = assay: as above; assay type: cell-based; conditions: Klebsiella pneumoniae, S21
Description: as §1, §2

E. coli M 49 = assay: as above; assay type: cell-based; conditions: Escherichia coli, M49
Description: as §1, §2

P. aeruginosa ATCC 27853 = assay: as above; assay type: cell-based; conditions: Pseudomonas aeruginosa, ATCC27853
Description: as §1, §2

C. frundaii 58 MP = assay: as above; assay type: cell-based
Description: as §1, §2

P. aeruginosa 2779 = assay: as above; assay type: cell-based; conditions: Pseudomonas aeruginosa
Description: as §1, §2

[1] = molecular target: T1, Class C beta-lactamase P99 (E. cloacae J137) (Enterobacter cloacae, UniProt P05364); assay: Beta-lactamase enzyme inhibition (Nitrocefin, crude enzyme); assay type: biochemical
T1 construct: preincubated mixture of crude enzyme and the compounds; endogenous in cells; host or cells: E. cloacae J137
T1 sequence (P05364 21-381): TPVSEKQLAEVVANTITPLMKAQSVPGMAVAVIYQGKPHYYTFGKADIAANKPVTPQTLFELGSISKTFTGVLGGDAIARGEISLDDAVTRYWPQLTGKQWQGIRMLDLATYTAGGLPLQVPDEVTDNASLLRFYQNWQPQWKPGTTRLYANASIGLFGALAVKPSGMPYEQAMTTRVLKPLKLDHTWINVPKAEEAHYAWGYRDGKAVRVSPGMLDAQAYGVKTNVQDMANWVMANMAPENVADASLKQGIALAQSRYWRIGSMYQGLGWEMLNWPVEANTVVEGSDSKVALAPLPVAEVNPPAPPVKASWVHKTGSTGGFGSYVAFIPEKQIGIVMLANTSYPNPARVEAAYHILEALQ
Description: (§3) Absorbance was measured at 485 nm by UV-spectrophotometer. The IC50 was calculated by plotting absorbance against concentration through Sigmoidal dose response curve using Graph Pad software.

[2] = molecular target: Class D beta-lactamase OXA 26 (A. baumannii NCTC 13303) (Acinetobacter baumannii, UniProt Q9F0V2); assay: as above; assay type: biochemical; conditions: A. baumannii NCTC 13303 (OXA 26), read-out: Beta-lactamase enzyme inhibition IC50
Chain of Class D beta-lactamase OXA 26 (A. baumannii NCTC 13303) (Q9F0V2 entry or part of it): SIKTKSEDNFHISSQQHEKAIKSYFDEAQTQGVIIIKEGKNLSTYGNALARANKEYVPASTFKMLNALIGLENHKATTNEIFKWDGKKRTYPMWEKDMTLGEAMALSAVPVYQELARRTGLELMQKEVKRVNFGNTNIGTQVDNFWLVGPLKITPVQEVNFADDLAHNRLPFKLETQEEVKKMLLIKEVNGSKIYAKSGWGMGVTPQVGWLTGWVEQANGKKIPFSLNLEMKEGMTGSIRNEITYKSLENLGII
Description: as §3

[3] = molecular target: T2, Class A beta-lactamase SHV 18 (K. pneumoniae ATCC 700603) (Klebsiella pneumoniae, UniProt P0AD64, E235K/G234A/I4F/R39S); assay: as above; assay type: biochemical; conditions: Class A, K. pneumoniae ATCC 700603 (SHV 18); read-out: Beta-lactamase enzyme inhibition IC50
T2 sequence (P0AD64 1-286 I4F/R39S/G234A/E235K): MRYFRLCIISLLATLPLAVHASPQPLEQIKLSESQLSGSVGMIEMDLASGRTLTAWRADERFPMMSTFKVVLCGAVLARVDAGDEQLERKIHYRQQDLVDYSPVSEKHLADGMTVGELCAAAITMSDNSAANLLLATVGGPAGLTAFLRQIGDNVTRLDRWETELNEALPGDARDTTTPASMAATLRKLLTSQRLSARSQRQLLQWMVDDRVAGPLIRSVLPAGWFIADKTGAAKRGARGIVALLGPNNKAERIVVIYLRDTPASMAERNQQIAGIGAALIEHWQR
Description: as §3
The enzyme inhibition was expressed as IC50.

[4] = tested on: K. pneumoniae H521 (KPC, SHV, TEM); assay: Antibacterial activity (MIC), agar dilution per CLSI; assay type: cell-based; conditions: Klebsiella pneumoniae; K. pneumoniae H521 (KPC, SHV, TEM); read-out: MIC
Description: as §1
(§4) The strains selected for study included E. coli NCTC 13353 producing CTX-M15 and OXA-1 beta-lactamase enzymes; K. pneumoniae H521 producing KPC, SHV, TEM beta-lactamase enzymes; and K. pneumoniae S48 producing NDM, SHV, TEM beta-lactamase enzymes. The activities are expressed as Minimum Inhibitory Concentrations (MICs) (mcg/ml).
(§5) The activities are expressed as Minimum Inhibitory Concentrations (MICs) (mcg/ml).

[5] = tested on: E. coli NCTC 13353 (CTX-M15, OXA-1); assay: as above; assay type: cell-based; conditions: Escherichia coli, NCTC13353; E. coli NCTC 13353 (CTX-M15, OXA-1); read-out: MIC
Description: as §1, §4, §5

Q: Which results are given for `NC(=O)[C@@H]1CC[C@@H]2CN1C(=O)N2OS(=O)(=O)O` [Avibactam, avibactam, reference compound]?
A: MIC (P. aeruginosa PAO1): > 64 µg/mL; MIC (E. coli NCTC 13351): > 64 µg/mL; MIC (E. coli NCTC 13352): > 64 µg/mL; MIC (E. cloacae M 20): > 64 µg/mL; MIC (K. pneumoniae H 525): 8 µg/mL (≈ 30.2 µM); MIC (P. aeruginosa R 20): > 64 µg/mL; MIC (E. coli M 50): > 64 µg/mL; MIC (E. coli 7 MP): > 64 µg/mL; MIC (K. pneumoniae S 21): 16 µg/mL (≈ 60.3 µM); MIC (E. coli M 49): 16 µg/mL (≈ 60.3 µM); MIC (P. aeruginosa ATCC 27853): > 64 µg/mL; MIC (C. frundaii 58 MP): > 64 µg/mL; MIC (P. aeruginosa 2779): > 64 µg/mL; IC50 [1]: 79 nM; IC50 [2]: 10100 nM; IC50 [3]: 98 nM and 10 nM; MIC [4]: 16 µg/mL (≈ 60.3 µM); MIC [5]: 16 µg/mL (≈ 60.3 µM)
